The test system of one test is P 388 leukemia. Set-up: species or system mice. The settings on record: mouse, in vivo.
The next test concerns L1210 cells. As to the kind of experiment: cells. As to conditions: Mus musculus, L1210, 48 h, read-out: IC50 (concentration which 50% inhibits the proliferation of the control cells). The format is cell-based.

`CC[C@]1(O)C[C@@H]2CN(CCc3c([nH]c4ccccc34)[C@@](C(=O)OC)(c3cc4c(cc3OC)N(C)[C@H]3[C@@](O)(C(=O)OC)[C@H](OC(C)=O)[C@]5(CC)C=CCN6CC[C@]43[C@@H]65)C2)C1` [Vinblastine, vinblastine]: in the test on P 388 leukemia, the “SURVIVORS 30 days” value is 1/6, the “SURVIVORS 60 days” value is listed as 1/6 and the “T/C % (mean survival time test group over untreated control group)” value was 245%. Further, the IC50 in the test on L1210 cells was determined as 2.3 ± 0.5 nM.

Turning to `CC[C@]1(O)C[C@H]2CN(CCc3c([nH]c4ccccc34)[C@@](C(=O)OC)(c3cc4c(cc3OC)N(C=O)[C@H]3[C@@](O)(C(=O)OC)[C@H](OC(C)=O)[C@]5(CC)C=CCN6CC[C@]43[C@@H]65)C2)C1` [Vincristine, vincristine], in the test on P 388 leukemia, the “SURVIVORS 30 days” value was 0/6, the “SURVIVORS 60 days” value is reported as 0/6 and the “T/C % (mean survival time test group over untreated control group)” value was 192%. The IC50 with L1210 cells is 4.2 ± 0.7 nM.

These data come from patent publication US5100881A (priority 1989, dated 1992).
